Earlier results, collected in patent US20050070607A1, “N-acetylcysteine compositions and methods for the treatment and prevention of cysteine/glutathione deficiency in diseases and conditions” (priority 2003, published 2005).
Like-named read-outs stand apart in the source and are kept apart here.

Tests used:
[1] = test system: influenza or influenza-like episodes; settings: frequency and severity of episodes, elderly and chronic non-respiratory disease; 1200 mg/day po; n 262; 6 months; De Flora 1997[46]
[2] = test system: Contrast-induced nephropathy (CIN)
[3] = compared with the stable cysteine disulfide
[4] = test system: patients with polycystic ovary syndrome; settings: circulating insulin levels and insulin sensitivity; 1.8-3 g daily depending on weight; n 33; 6 weeks; Fulghesu 2002[20]
Hyperoxic ventilation = settings: whole body oxygen uptake, oxygen extraction ratio, gastric intramucosal pH; IV over 15 min; n 38; 72 hours; Reinhart 1995[266]
[5] = test system: normal subjects breathing against high inspiratory loads; settings: development of diaphragm fatigue; 150 mg/kg IV; n 4; 3 weeks; Travaline 1997[37]
[6] = test system: non-insulin dependent diabetic (NIDDM) patients

## CC(=O)N[C@@H](CS)C(=O)O [NAC, N-acetylcysteine]
[1]
  Beneficial effects: Beneficial
[2]; 400 mg PO bid for 2 days, n 121, Shyu 2002[8]
  RR (incidence of contrast-induced nephropathy): contrast-induced nephropathy (RR 0.13)
[2]; 600 mg PO bid, n 54, Diaz-Sandoval 2002[7]
  RR (incidence of post-catheterization nephropathy): 0.21) in patients with stable chronic renal
[2]; 600 mg PO bid, n 83, Tepel[3-5]
  relative risk, RR (reduction in renal function induced by iopromide): contrast agent (relative risk, RR 0.10)
[2]; 83 patients with baseline renal impairment, computed tomography with nonionic low-osmolality contrast agent, Tepel[3-5]
  reduction in the incidence of acute renal failure: 90%
[2]; chronic renal insufficiency, iopromide, 600 mg PO bid with hydration, n 83, 2 days, Tepel 2000, 2001, 2003[3-5]
  Beneficial effects: Beneficial
[2]; control 6.4%, 1500 mg for 4 doses, Oldemeyer 2003[188]
  incidence of CIN by 48 hours: both groups was low (NAC 8.2%, control
[2]; control 12%, 600 mg 4 times daily, Boccalandro 2003[187]
  incidence of CIN at 48 hours: hours (NAC, 13%; control 12%) after
[2]; coronary angiographic procedures, 600 mg PO bid, n 200, Kay 2003[6]
  RR (contrast-induced deterioration in renal function): adverse effects (RR 0.32). Kay, 2003[6]
[2]; moderate chronic renal insufficiency, coronary angiographic procedures, 600 mg PO bid, n 200, 3 days, Kay 2003[6]
  Beneficial effects: Beneficial
[2]; oxidative stress-mediated proximal tubular injury, 1200 mg daily, n 24, 4 days, Drager 2004[271]
  Beneficial effects: Beneficial
[2]; serum creatinine > 1.2 mg/dL, elective coronary angiography, creatinine clearance at 24 and 96 hours, 1000 mg daily, n 49, 4 days, Efarti 2003[9]
  Beneficial effects: Beneficial
[2]; serum creatinine >= 1.5 mg/dL, elective cardiac catheterization, 600 mg 5 doses, n 43, 3 days, MacNeil 2003[10]
  Beneficial effects: Beneficial
[2]; stable chronic renal insufficiency, coronary angiography, 400 mg PO bid for 2 days, n 121, 7 days, Shyu 2002[8]
  Beneficial effects: Beneficial
[2]; stable chronic renal insufficiency, elective cardiac catheterization, 600 mg PO bid, n 54, 2 days, Diaz-Sandoval 2002[7]
  Beneficial effects: Beneficial
[2]; subset receiving <140 mL contrast agent, from 8.5%, p=0.02, 183 patients [190]
  incidence of contrast nephropathy: 0%
[2]; vs 32.2% placebo, P = 0.046, 600 mg 5 doses, MacNeil 2003[10]
  development of CIN by 72 hours: catheterization (4.8% vs 32.2%, P =
Severe malaria; 300 mg/kg intravenously over 20 hours, 30 subjects [51]
  time for elevated serum lactate levels to return to normal vs placebo: twice as quickly
Severe malaria; quinine-treated malaria, serum lactate, 300 mg/kg IV, n 30, 20 hours, Watt 2002[51]
  Beneficial effects: Beneficial
HIV infected individuals; CD4 counts > 200/ul, plasma cysteine, rate of CD4 decline, 800 mg/day po, n 45, 4 months, Akerlund 1996[47]
  Beneficial effects: Beneficial
HIV infected individuals; beginning of antiretroviral therapy, hematocrit, CD4 cell count, 600 mg/day, n 20, 180 days, Spada 2002[227]
  Beneficial effects: Beneficial
HIV infected individuals; immune function, 0.6-3.6 g depending on GSH levels po, n 69, 7 months, Breitkreutz 2000[50]
  Beneficial effects: Beneficial
HIV infected individuals; in vivo
  adverse events, highest reported long-term NAC dosage: No adverse events requiring physician intervention
HIV infected individuals; whole blood GSH and T cell GSH, 3,200-8,000 mg/day po, n 81, 8 weeks, De Rosa 2000, Herzenberg 1997[48,49]
  Beneficial effects: Beneficial
Smoking; formation of lipophilic-DNA adducts, 1200 mg/day po, n 41, 6 months, VanShooten 2002[35]
  Beneficial effects: Beneficial
Smoking; mucus clearance, 600 mg/day, n 12, 30 days, Olivieri 1985[36]
  Beneficial effects: Beneficial
Bronchitis; General Health Questionnaire score, mild chronic bronchitis, 1200 mg/day po, n 153, 22 weeks, Hansen 1994[34]
  Beneficial effects: Beneficial
Bronchitis; days incapacitated, 600 mg/day po, n 526, 6 months, Parr and Huitson 1987[31]
  Beneficial effects: Beneficial
Bronchitis; difficulty in expectoration and cough severity, 600 mg/day po, n 155, 3 months, Jackson 1984[30]
  Beneficial effects: Beneficial
Bronchitis; evening peak flows after NAC pre-treatment, 1200 mg/day po, n 37, 22 weeks, Evald 1989[33]
  Beneficial effects: Beneficial
Bronchitis; exacerbation rate, 400 mg/day po, n 259, 6 months, Boman 1983[29]
  Beneficial effects: Beneficial
Bronchitis; frequency of exacerbations, 600 mg/day, 3 days/wk, po, n 69, 6 months, Grassi and Morandini 1976[24]
  Beneficial effects: Beneficial
Bronchitis; sick-leave days caused by exacerbations, 600 mg/day po, n 116, 6 months, Rasmussen and Glennow 1988[32]
  Beneficial effects: Beneficial
Bronchitis; sputum consistency, expectoration, peak expiratory flow rate, 600 mg/day po, n 29, 4 weeks, Aylward 1980[25]
  Beneficial effects: Beneficial
Bronchitis; sputum thickness, expectoration, exacerbations, 400 mg/day po, n 744, 6 months, Grassi 1980, Ferrari 1980[27,28]
  Beneficial effects: Beneficial
Bronchitis; sputum volume and viscosity, acute and chronic bronchitis, 600 mg/day po, n 215, 10 days, Brocard 1980[26]
  Beneficial effects: Beneficial
[3]
  solubility relative to cystine: much more soluble
[4]
  Beneficial effects: Beneficial
Hyperoxic ventilation
  Treatment effect: Beneficial
[5]
  Beneficial effects: Beneficial
Cystic Fibrosis (CF); CF and primary ciliary dyskinesia, lung function, 600 mg < 30 kg or 800 mg > 30 kg per day po, n 54, 3 months, Stafanger 1988[40]
  Beneficial effects: Beneficial
Cystic Fibrosis (CF); air trapping and FEV1, NAC or Ambroxol 200 mg 3 times daily, n 36, 12 weeks, Ratjen 1985[274]
  Beneficial effects: Beneficial
[6]; erythrocyte GSH, GSH:GSSG ratio, plasma soluble VCAM-1, 1200 mg/day po, n 15, 1 month, De Mattia 1998[21]
  Beneficial effects: Beneficial
[6]; type 2 diabetics, two weeks of dietary supplementation, Jahoor ongoing study [197]
  erythrocyte GSH concentration and rate of its synthesis: significant increases
Hemodialysis patients; 134 chronic hemodialysis patients, p=0.03, [17]
  RR, composite cardiovascular outcome: 0.60
Hemodialysis patients; Homocysteine in hemodialysis, intravenous 5 g in 5% glucose solution, n 20, 1 session, Scholze 2004[273]
  Beneficial effects: Beneficial
Hemodialysis patients; chronic hemodialysis patients [17]
  serum oxidized LDL values at the end of the study: much lower
Hemodialysis patients; chronic oral 1200 mg BID, 4 weeks, placebo −8%, P = 0.07, Friedman 2003[276]
  Plasma homocysteine level change: chronic oral NAC therapy (−19%) but did
Hemodialysis patients; composite cardiovascular end points, 600 mg bid, n 134, 1-24 months, median 14.5 months, Tepel 2003[17]
  Beneficial effects: Beneficial
Hemodialysis patients; control group 58 +/− 22%, P < 0.01, intravenous 5 g, Scholze 2004[273]
  Plasma homocysteine level after hemodialysis: homocysteine levels decreased to 12 +/− 7% of predialysis level (mean +
Hemodialysis patients; end-stage renal failure, plasma homocysteine, pulse pressure, endothelial function, 5 g in 5% glucose, n 20, Scholze 2004[273]
  Beneficial effects: Beneficial
Not found clinically significant [106]
  side effect reported for NAC treatment for inflammatory conditions: mild to moderate anticoagulation
Several reports [163,249-256]
  adverse responses to intravenous NAC administration: anaphylactoid and allergic responses
